From ChEMBL document CHEMBL5523711, “Design, synthesis, and bioevaluation of SOS1 PROTACs derived from pyrido[2,3-d]pyrimidin-7-one-based SOS1 inhibitor” (Bioorg Med Chem Lett, 2024) come the findings set out here.

What all share (type): functional, cell-based
In test [1] the test system is SW-620. The test is described as follows: Antiproliferative activity against human SW620 cells harboring KRAS G12V mutant assessed as inhibition of cell growth.
Test [2] concerns A549. The test is described as follows: Antiproliferative activity against human A549 cells harboring KRAS G12S mutant assessed as inhibition of cell growth.
Test [3] has as its system DLD-1. The test is described as follows: Antiproliferative activity against human DLD-1 cells harboring KRAS G13D mutant assessed as inhibition of cell growth.

The IC50 is the concentration that gives 50% inhibition.

Consider `COc1ccc(C(=O)N2CCC3(CCC(CN4CCN(C(=O)[C@H]5CC[C@H](c6cc7c(N[C@H](C)c8cc(N)cc(C(F)(F)F)c8)ncnc7n(C)c6=O)CC5)CC4)CC3)CC2)cc1N1CCC(=O)NC1=O`, for which the IC50 in test [1] amounted to 36.7 nM; in test [2], 52.2 nM; in test [3], 107 nM.
On to `COc1cc2nc(C)nc(N[C@H](C)c3cc(N)cc(C(F)(F)F)c3)c2cc1O[C@H]1CCOC1`, for which the IC50 in test [1] came out at 50.5 nM; in test [2] it was 106 nM; in test [3] it was 169 nM.
